A value given as a limit tells only on which side of the number the result lay.

The target in assay [1] is human recombinant dopamine D2 receptor (Homo sapiens (Human), UniProt P14416). The experiment in a line: Test of binding inhibition for the human dopamine D2 receptor ([3H]-Metylspiperone SPA binding). The settings on record: [3H]-Metylspiperone 1.2 nM, Jump-In HEK cell membranes, read-out: hD2_Ki. As to the method:
Cell membranes: Jump-In HEK cell membranes expressing human recombinant dopamine D2 receptor (2 μg/well)
Buffer solution: 50 mM Tris-HCl (35409-45, Nacalai Tesque) (pH 7.4) containing 120 mM NaCl (31320-05, Nacalai Tesque), 1 mM MgCl2.6H2O (20909-55, Nacalai Tesque), 5 mM KCl (28514-75, Nacalai Tesque) and 2 mM CaCl2 (067-31, Nacalai Chemical, Ltd)
Radioligand: (final concentration) 1.2 nM [^3H]-Metylspiperone ([^3H—N-methyl-]-Metylspiperone, NET-856, 83.8 Ci/mmol, PerkinElmer)
(§1) Non-specific ligand: (final concentration) 10 μM Butaclamol [(+)-Butaclamol Hydrochioride, D033, Sigma]
(§2) SPA beads: SPA beads [WGA PVT SPA Scintillatiion Beads, RPNQ0001 (500 mg), RPNQ0060 (2 g), PerkinElmer] (0.2 mg/well)
(§3) Incubation time and temperature: 120 min at 25° C.
(§4) Butaclamol or the compounds of the present invention were weighed and DMSO was added to make a 10 mM solution. This solution was diluted to each concentration.
[^3H]-Metylspiperone was weighed and the buffer solution was added to make a 3.6 nM solution.
(§5) SPA beads were weighed and stirred in water to make a 50 mg/mL solution. Using this solution, a mixed solution with the cell membranes was prepared.
225 nL of the solutions of the non-specific ligand or the compounds of the present invention at each concentration (in case of vehicle, final concentration 0.3% DMSO) were added in each well of a 384-well white/clear bottom microplate (3706, Corning). Jump-In HEK Cell membranes (final reaction amount: 2 μg protein/well), SPA beads (final reaction amount: 0.2 mg/well) and the buffer were mixed and the mixed solution was left still for more than or equal to 1 h at 4° C. Then, 50 μL of the mixture was added to each well of the plate. In addition, 25 μL of 3.6 nM [^3H]-Metylspiperone (final concentration: 1.2 nM) was added to each well. The plate was sealed by putting TopSeal-A 96/384 well (6050185, PerkinElmer) on the top of the plate, mixed using stirring deaerator (Welltornado, FK-62, Sakaki) and incubated for 120 min at 25° C. After incubation, the radioactivity of [^3H]-Metylspiperone which was binded to D2 receptor was determined by liquid scintillation counter (1450 Microbeta, PerkinElmer) in each well. Non-specific binding was calculated based on the radioactivity of [^3H]-Metylspiperone in the presence of 10 μM non-labeled Butaclamol. The total binding was calculated using the radioactivity of [^3H]-Metylspiperone in the absence of the compounds of the present invention (Vehicle). The Ki values were calculated from dose-response curves.
(§6) Binding activities of the compounds of the present invention were calculated from the following Binding Inhibition Rate (%): Inhibition Rate (%)=[1−(c−a)(b−a)]×100(%) • a: Average cpm of non-specific binding • b: Average cpm of total binding • c: Cpm in the presence of each test compound

In assay [2] the target is human recombinant dopamine D3 receptor (Homo sapiens (Human), UniProt P35462). The experiment in a line: Test of binding inhibition for the human dopamine D3 receptor ([3H]-Metylspiperone SPA binding). The settings on record: [3H]-Metylspiperone 2 nM, Jump-In HEK cell membranes, read-out: hD3_Ki. As to the method: Cell membranes: Jump-In HEK cell membranes expressing human recombinant dopamine D3 receptor (4 μg/well)
human recombinant dopamine D3 receptor, sequence (P35462 whole entry): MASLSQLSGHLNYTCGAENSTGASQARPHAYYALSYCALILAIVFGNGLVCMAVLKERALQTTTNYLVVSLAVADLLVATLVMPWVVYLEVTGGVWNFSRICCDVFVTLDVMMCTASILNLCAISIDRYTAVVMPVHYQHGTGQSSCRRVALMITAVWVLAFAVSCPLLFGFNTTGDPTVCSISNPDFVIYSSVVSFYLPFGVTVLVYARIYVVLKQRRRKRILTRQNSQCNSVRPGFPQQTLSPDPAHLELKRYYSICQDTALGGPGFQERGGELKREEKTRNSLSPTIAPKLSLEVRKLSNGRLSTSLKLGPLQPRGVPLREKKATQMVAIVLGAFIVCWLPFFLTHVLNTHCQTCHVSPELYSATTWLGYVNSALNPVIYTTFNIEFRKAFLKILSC
as §1, §2, §3, §4
[^3H]-Metylspiperone was weighed and the buffer solution was added to make a 6 nM solution.
as §5
Jump-In HEK Cell membranes (final reaction amount: 4 μg/well), SPA beads (final reaction amount: 0.2 mg/well) and Tris-HCl buffer were mixed and the mixed solution was left still for more than 60 min at 4° C. Then, 50 μL of the mixture was added to each well of the plate. In addition, 25 μL of 6 nM [^3H]-Metylspiperone (final concentration: 2 nM) was added to each well. […] Non-specific binding was calculated based on the radioactivity of [^3H]-Metylspiperone in the presence of 10 μM non-labeled Butaclamol. The total binding was calculated based on the radioactivity of [^3H]-Metylspiperone in the absence of the compounds of the present invention (Vehicle). The Ki values were calculated from dose-response curves.
as §6

human recombinant dopamine D2 receptor, sequence (P14416 whole entry): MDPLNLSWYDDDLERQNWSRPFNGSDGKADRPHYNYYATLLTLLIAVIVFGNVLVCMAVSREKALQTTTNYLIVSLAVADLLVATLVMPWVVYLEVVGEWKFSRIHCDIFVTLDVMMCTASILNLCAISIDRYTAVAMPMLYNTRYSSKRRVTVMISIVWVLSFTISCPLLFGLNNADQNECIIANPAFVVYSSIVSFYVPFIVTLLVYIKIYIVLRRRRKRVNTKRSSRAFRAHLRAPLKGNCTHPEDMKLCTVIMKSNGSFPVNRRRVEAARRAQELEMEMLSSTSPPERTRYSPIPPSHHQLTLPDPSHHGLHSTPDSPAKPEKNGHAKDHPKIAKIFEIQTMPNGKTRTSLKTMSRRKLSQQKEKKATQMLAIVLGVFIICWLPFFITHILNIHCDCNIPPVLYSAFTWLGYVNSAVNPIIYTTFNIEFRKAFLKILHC

For `CC(Oc1nc2c(s1)CCN(CC[C@H]1CC[C@H](NC(=O)c3cccc4nn(C)cc34)CC1)CC2)C(F)(F)F` (stereo partly drawn) [III-063], the Ki in assay [1] is > 1900 nM; in assay [2], 0.13 nM.
On the same counts, the results for `Cc1ncc(CC(=O)N[C@H]2CC[C@](F)(CCN3CCc4nc(OCC(C)(F)F)sc4CC3)CC2)s1` [II-070] are 820 nM and 0.44 nM.
In the case of `Cn1c(-c2ccccc2)nc2c1CCN(CC[C@H]1CC[C@H](NC(=O)c3cccc4ncccc34)CC1)C2` [Compound I-070], the Ki stood at 500 nM in assay [1] and 1.4 nM in assay [2].
For `Cc1ncccc1C(=O)N[C@H]1CC[C@H](CCN2CCc3nc(OCC(F)F)sc3CC2)CC1` [III-271], in that order: 1100 nM and 1.2 nM.
Take `Cn1cc(/C=C/C(=O)N[C@H]2CC[C@H](CCN3CCc4nc(OCC(F)(F)F)sc4CC3)CC2)cn1` [III-138]: the results for the Ki in assay [1] and in assay [2] were 44 nM and 0.057 nM, respectively.
On the same counts, the results for `CCN1Cc2c(C(=O)N[C@H]3CC[C@H](CCN4CCc5ccc(OCC(F)(F)F)nc5CC4)OC3)cccc2C1=O` [III-236] are 120 nM and 0.086 nM.
With `Cc1ncc(CC(=O)N[C@H]2CC[C@H](CCN3CCc4cc(C)c(OCC(F)F)nc4CC3)OC2)s1` [III-008], the Ki in assay [1] came out at 480 nM; in assay [2], 0.25 nM.
Turning to `Cn1ccc2c(C(=O)N[C@H]3CC[C@H](CCN4CCc5sc(OCC(C)(F)F)nc5C4)CC3)cccc2c1=O` [III-630], the figures for the Ki in assay [1] and in assay [2] were > 1900 nM and 0.16 nM, respectively.
Take `Cn1cc2c(C(=O)NC3CC4(CC(CCN5CCc6sc(OCC(C)(F)F)nc6C5)C4)C3)cccc2n1` (single isomer, unassigned) [III-624]: the results for the Ki in assay [1] and in assay [2] were 400 nM and 0.092 nM, respectively.
For `Cn1cc(CC(=O)N[C@H]2CC[C@](F)(CCN3CCc4ccc(OCC(F)(F)F)nc4CC3)CC2)cn1` [III-102], the Ki in assay [1] worked out at 400 nM; in assay [2], 0.11 nM.
On the same counts, the results for `Cn1cc2c(C(=O)N[C@H]3CC[C@H](CCN4CCc5nc(OCC(C)(C)F)sc5CC4)CC3)cccc2n1` [III-076] are > 1700 nM and 0.73 nM.
On the same counts, the results for `Cc1ncc(OCC(=O)N[C@H]2CC[C@](F)(CCN3CCc4ccc(OCC(F)(F)F)nc4CC3)CC2)cn1` [III-088] are 310 nM and 0.31 nM.
For `O=C(N[C@H]1CC[C@H](CCN2CCc3sc(Br)nc3C2)CC1)c1cccc2ncccc12` [Compound I-003], the Ki was > 1900 nM in assay [1] and 2.6 nM in assay [2].
For `Cc1cc(OCC(=O)N[C@H]2CC[C@](F)(CCN3CCc4ccc(OCC(F)(F)F)nc4CC3)CC2)no1` [III-104], in that order: > 1700 nM and 0.53 nM.
`Cc1cnc(CC(=O)N[C@H]2CC[C@](F)(CCN3CCc4nc(OCC(F)(F)F)sc4CC3)CC2)o1` [III-266]: the figures for the Ki in assay [1] and in assay [2] were > 1800 nM and 0.15 nM, respectively.
Take `Cn1cc2c(C(=O)N[C@H]3CC[C@H](C(O)CN4CCc5ccc(OCC(F)(F)F)nc5CC4)CC3)cccc2n1` (stereo partly drawn) [III-248]: the Ki was > 1900 nM in assay [1] and 1.6 nM in assay [2].
On the same counts, the results for `Cn1cc2c(C(=O)N[C@H]3CC[C@H](CCN4CCc5nc(OCC(F)(F)F)sc5CC4)CC3)cccc2n1` [II-046] are 1200 nM and 0.2 nM.
For `Cc1ncc(/C=C/C(=O)N[C@H]2CC[C@H](CCN3CCc4nc(OCC(F)F)sc4CC3)CC2)s1` [III-274], in that order: 140 nM and 0.12 nM.
In the case of `Cn1cc2c(C(=O)N[C@H]3CC[C@H](CCN4CCc5nc(OC6CC(F)(F)C6)sc5CC4)CC3)cccc2n1` [III-244], the Ki is > 1900 nM in assay [1] and 0.24 nM in assay [2].
Take `Cc1ncc(CC(=O)N[C@H]2CC[C@H](CCN3CCc4sc(CCC(F)(F)F)nc4C3)CC2)o1` [III-696]: the values for the Ki in assay [1] and in assay [2] were 800 nM and 0.2 nM, respectively.
Take `Cn1cc2c(C(=O)N[C@H]3CC[C@H](CCN4CCc5ccc(C6CC6)nc5CC4)CC3)cccc2n1` [III-074]: the Ki was > 1800 nM in assay [1] and 0.66 nM in assay [2].
For `Cn1cc(CC(=O)N[C@H]2CC[C@H](CCN3CCc4sc(OCC(C)(F)F)nc4C3)CC2)c(F)n1` [III-547], in that order: 800 nM and 0.64 nM.
Turning to `Cn1cc2c(C(=O)NN3CCC(CCN4CCc5sc(OCC(F)(F)F)nc5C4)CC3)cccc2n1` [III-661], the Ki in assay [1] came out at 1300 nM; in assay [2], 0.5 nM.
On the same counts, the results for `CN1Cc2c(C(=O)N[C@H]3CC[C@H](CCN4CCc5sc(CCC(F)(F)F)nc5C4)CC3)cccc2C1=O` [III-697] are 220 nM and 0.23 nM.
Take `O=C(N[C@H]1CC[C@H](CCN2CCc3sc(C4=CCOCC4)nc3C2)CC1)c1cccc2ncccc12` [Compound I-001]: the Ki was > 1700 nM in assay [1] and 11 nM in assay [2].
On the same counts, the results for `CC(F)(F)COc1nc2c(s1)CCN(CC[C@H]1CC[C@H](NC(=O)c3cccc4ncccc34)CC1)C2` [Compound I-071] are 150 nM and 0.13 nM.
On the same counts, the results for `Cc1ncc(CC(=O)N[C@H]2CC[C@H](CCN3CCc4ccc(N5CC(F)(F)C5)nc4CC3)CC2)s1` [II-066] are > 1900 nM and 0.84 nM.
Regarding `CCn1c(C(=O)N[C@H]2CC[C@H](CCN3CCc4ccc(OCC(F)(F)F)nc4CC3)CC2)cccc1=O` [II-081], the Ki worked out at 230 nM in assay [1] and 0.048 nM in assay [2].
Consider `Cc1cc(CC(=O)N[C@H]2CC[C@](F)(CCN3CCc4nc(OCC(F)(F)F)sc4CC3)CC2)no1` [III-255], for which the Ki in assay [1] is > 1800 nM; in assay [2] it was 0.67 nM.
On the same counts, the results for `CC(Oc1nc2c(s1)CCN(CC[C@H]1CC[C@H](NC(=O)c3cccc4c3CN(C)C4=O)CC1)CC2)C(F)(F)F` (stereo partly drawn) [III-064] are 640 nM and 0.026 nM.
As to `Cn1cc2c(C(=O)N[C@H]3CC[C@H](CCN4CCc5sc(CCC(F)F)nc5C4)CC3)cccc2n1` [III-685], the Ki in assay [1] came out at 280 nM; in assay [2], 0.1 nM.
On the same counts, the results for `Cn1cc2c(C(=O)N[C@H]3CC[C@H](CCN4CCc5cnc(CCC(F)(F)F)nc5CC4)CC3)cccc2n1` [II-072] are > 1800 nM and 0.48 nM.
`Cc1nc(/C=C/C(=O)N[C@H]2CC[C@H](CCN3CCc4sc(N5CC(F)(F)C5)nc4C3)CC2)cs1` [III-706]: the figures for the Ki in assay [1] and in assay [2] were 290 nM and 0.051 nM, respectively.
As for `Cn1cc(CC(=O)N[C@H]2CC[C@](F)(CCN3CCc4nc(OCC(F)(F)F)sc4CC3)CC2)cn1` [III-261], the Ki in assay [1] amounted to 480 nM; in assay [2] it was 0.57 nM.
On the same counts, the results for `Cn1cc2c(C(=O)N[C@H]3CC[C@H](CCN4CCc5sc(CCC(C)(F)F)nc5C4)CC3)cccc2n1` [III-642] are 920 nM and 0.37 nM.
For `O=C(N[C@H]1CC[C@H](CCN2CCc3nc(-c4ccccc4)sc3C2)CC1)c1cccc2ncccc12` [Compound I-018], in that order: > 1700 nM and 12 nM.
Take `Cn1cc(OCC(=O)N[C@H]2CC[C@](F)(CCN3CCc4nc(OCC(F)(F)F)sc4CC3)CC2)cn1` [III-268]: the Ki in assay [1] amounted to 340 nM; in assay [2], 0.39 nM.
On the same counts, the results for `Cc1ncc(CC(=O)N[C@H]2CC[C@H](CCN3CCc4nc(OCC(C)(C)F)sc4CC3)CC2)s1` [II-099] are > 1900 nM and 0.52 nM.
With `O=C(N[C@H]1CC[C@H](CCN2CCc3sc(OCC(F)(F)F)nc3C2)OC1)c1cccc2ncccc12` [Compound I-142], the Ki is 650 nM in assay [1] and 0.72 nM in assay [2].
